Data on four compounds can be found in ChEMBL document CHEMBL1268871, “Structure and functions of gamma-dodecalactone isolated from Antrodia camphorata for NK cell activation” (Bioorg Med Chem, 2010).

For series [1], the system named is PBMC. Put plainly: Cellular uptake in human PBMC pellet solution after 20 mins by GC analysis. It is filed as ADME, cell-based.
In series [2] the test system is PBMC. Put plainly: Cellular uptake in human PBMC residual solution after 20 mins by GC analysis. In kind it is ADME, cell-based.
The nature of series [3]: Immunomodulatory activity in human PMNC assessed as induction of CD69 expression at 100 uM after 24 hrs by FACS analysis. In kind it is functional. A general note: A flow cytometer gives signals particle by particle.
In series [4] the test system is NK. As to the kind of experiment: Immunomodulatory activity in human NK cells assessed as induction of IFNG gene expression at 375 uM after 4 hrs by RT-PCR analysis. In kind it is functional, cell-based.
In series [5] the test system is PBMC. As to the kind of experiment: Cellular uptake in human PBMC pellet solution after 3 hrs by GC analysis. It is filed as ADME, cell-based.
Series [6] has as its system PBMC. As to the kind of experiment: Cellular uptake in human PBMC nucleus after 20 mins by GC analysis. It is filed as ADME, cell-based.
For series [7], the system named is PBMC. As to the kind of experiment: Cellular uptake in human PBMC after 1 hr by GC analysis. In kind it is ADME, cell-based.
Series [8] deals with NK. Put plainly: Immunomodulatory activity in human NK cells assessed as induction of GZMB gene expression at 375 uM after 4 hrs by RT-PCR analysis. In kind it is functional, cell-based.
For series [9], the system named is PBMC. As to the kind of experiment: Cellular uptake in human PBMC after 20 mins by GC analysis. It is filed as ADME, cell-based.
Series [10] relates to PBMC. Put plainly: Cellular uptake in human PBMC after 10 mins by GC analysis. In kind it is ADME, cell-based.
Series [11] deals with PBMC. Put plainly: Cellular uptake in human PBMC nucleus assessed per mg of protein after 2 hrs by GC analysis. In kind it is ADME, cell-based.
In series [12] the test system is PBMC. As to the kind of experiment: Cellular uptake in human PBMC nucleus assessed per mg of protein after 20 mins by GC analysis. It is filed as ADME, cell-based.
Series [13] relates to PBMC. Put plainly: Cellular uptake in human PBMC nucleus assessed per mg of protein after 10 mins by GC analysis. In kind it is ADME, cell-based.
Series [14] in a line: Immunomodulatory activity in human PMNC assessed as induction of FasL expression at 375 uM after 24 hrs by FITC-conjugated flow cytometry relative to control. It is filed as functional.
Series [15] relates to PBMC. As to the kind of experiment: Cellular uptake in human PBMC nucleus after 2 hrs by GC analysis. It is filed as ADME, cell-based.
The nature of series [16]: Immunomodulatory activity in human PMNC assessed as induction of CD69 expression at 200 uM after 24 hrs by FACS analysis. In kind it is functional.
The subject of series [17] is PBMC. As to the kind of experiment: Cellular uptake in human PBMC nucleus residual solution after 30 mins by GC analysis. As to conditions: 0.5 h. In kind it is ADME, cell-based.
A short description of series [18]: Cytotoxicity human PMNC up to 375 uM after 48 hrs by WST assay.
Series [19] is described as follows: Immunomodulatory activity in human PMNC assessed as induction of CD69 expression at 375 uM after 24 hrs by FACS analysis. In kind it is functional.
Series [20] deals with HepG2. As to the kind of experiment: Immunomodulatory activity in human HepG2 cells assessed as induction of innate immunity-mediated cytotoxicity at 375 uM after 24 hrs by fluorescence microscopy. It is filed as functional, cell-based.
Series [21] deals with PBMC. As to the kind of experiment: Cellular uptake in human PBMC nucleus residual solution after 1 hr by GC analysis. It is filed as ADME, cell-based.
Series [22] can be described thus: Cellular uptake in human NK cells at 500 uM after 20 mins by GC analysis. It is filed as ADME, cell-based.
Series [23] concerns PBMC. Put plainly: Cellular uptake in human PBMC after 2 hrs by GC analysis. It is filed as ADME, cell-based.
Series [24] has as its system PBMC. As to the kind of experiment: Cellular uptake in human PBMC nucleus after 10 mins by GC analysis. It is filed as ADME, cell-based.
Series [25] concerns NK. As to the kind of experiment: Immunomodulatory activity in human NK cells assessed as induction of FASLG gene expression at 375 uM after 4 hrs by RT-PCR analysis. In kind it is functional, cell-based.
Series [26] relates to PBMC. Put plainly: Cellular uptake in human PBMC pellet solution after 2 hrs by GC analysis. In kind it is ADME, cell-based.
Series [27] concerns NK. Put plainly: Immunomodulatory activity in human NK cells assessed as induction of TNF gene expression at 375 uM after 4 hrs by RT-PCR analysis. It is filed as functional, cell-based.
Series [28] relates to PBMC. Put plainly: Cellular uptake in human PBMC residual solution after 1 hr by GC analysis. In kind it is ADME, cell-based.
Series [29] deals with NK. As to the kind of experiment: Immunomodulatory activity in human NK cells assessed as induction of IL2 gene expression at 375 uM after 4 hrs by RT-PCR analysis. It is filed as functional, cell-based.
In series [30] the test system is PBMC. As to the kind of experiment: Cellular uptake in human PBMC residual solution after 30 mins by GC analysis. In kind it is ADME, cell-based. The settings on record: 0.5 h.
In series [31] the test system is PBMC. Put plainly: Cellular uptake in human PBMC nucleus residual solution after 2 hrs by GC analysis. In kind it is ADME, cell-based.
A short description of series [32]: Immunomodulatory activity in human PMNC assessed as induction of CD69 expression at 20 ng/ml after 24 hrs by FACS analysis. In kind it is functional.
Series [33] is described as follows: Metabolic stability in human NK cells assessed as conversion to 4-hydroxydodecanoic acid at 375 uM after 45 mins by RP-HPLC analysis. In kind it is ADME, cell-based. The settings on record: 0.75 h.
Series [34] concerns PBMC. As to the kind of experiment: Cellular uptake in human PBMC residual solution after 10 mins by GC analysis. It is filed as ADME, cell-based.
Series [35] relates to PBMC. As to the kind of experiment: Cellular uptake in human PBMC nucleus assessed per mg of protein after 30 mins by GC analysis. It is filed as ADME, cell-based. As to conditions: 0.5 h.
Series [36] relates to PBMC. Put plainly: Cellular uptake in human PBMC nucleus after 1 hr by GC analysis. In kind it is ADME, cell-based.
The subject of series [37] is NK. Put plainly: Immunomodulatory activity in human NK cells assessed as induction of CD69 gene expression at 375 uM after 4 hrs by RT-PCR analysis. In kind it is functional, cell-based.
Series [38] has as its system PBMC. Put plainly: Cellular uptake in human PBMC residual solution after 3 hrs by GC analysis. In kind it is ADME, cell-based.
The test system of series [39] is PBMC. As to the kind of experiment: Cellular uptake in human PBMC nucleus assessed per mg of protein after 1 hr by GC analysis. In kind it is ADME, cell-based.
In series [40] the test system is PBMC. Put plainly: Cellular uptake in human PBMC after 30 mins by GC analysis. In kind it is ADME, cell-based. The settings on record: 0.5 h.
Series [41] concerns PBMC. As to the kind of experiment: Cellular uptake in human PBMC nucleus residual solution after 10 mins by GC analysis. It is filed as ADME, cell-based.
Series [42] has as its system PBMC. As to the kind of experiment: Cellular uptake in human PBMC nucleus after 30 mins by GC analysis. In kind it is ADME, cell-based. The settings on record: 0.5 h.
The test system of series [43] is PBMC. As to the kind of experiment: Cellular uptake in human PBMC pellet solution after 30 mins by GC analysis. It is filed as ADME, cell-based. As to conditions: 0.5 h.
In series [44] the test system is PBMC. Put plainly: Cellular uptake in human PBMC pellet solution after 1 hr by GC analysis. In kind it is ADME, cell-based.
In series [45] the test system is PBMC. As to the kind of experiment: Cellular uptake in human PBMC nucleus residual solution after 20 mins by GC analysis. It is filed as ADME, cell-based.
The species entered for series [46] is Homo sapiens. As to the kind of experiment: Immunomodulatory activity in human PMNC assessed as induction of CD69 expression after 24 hrs by FITC-conjugated flow cytometry. It is filed as functional.
The subject of series [47] is PBMC. As to the kind of experiment: Cellular uptake in human PBMC residual solution after 2 hrs by GC analysis. It is filed as ADME, cell-based.
Series [48] can be described thus: Immunomodulatory activity in human PMNC assessed as induction of GraB expression at 375 uM after 24 hrs by FITC-conjugated flow cytometry relative to control. In kind it is functional.
The test system of series [49] is PBMC. As to the kind of experiment: Cellular uptake in human PBMC after 3 hrs by GC analysis. It is filed as ADME, cell-based.
In series [50] the test system is PBMC. As to the kind of experiment: Cellular uptake in human PBMC pellet solution after 10 mins by GC analysis. In kind it is ADME, cell-based.
Series [51] can be described thus: Metabolic stability in human NK cells assessed as formation of 4-hydroxydodecanoic acid at 375 uM after 3 hrs by RP-HPLC analysis. In kind it is ADME, cell-based.
The species named for series [52] is Homo sapiens. As to the kind of experiment: Immunomodulatory activity in human PMNC assessed as induction of CD69 expression at 375 uM within 10 mins by FACS analysis. In kind it is functional.

Each structure is given as a SMILES string. Active and inactive are the calls of the source. No cut-off for these calls is given here.

In the case of `CCCCCCCC[C@H]1CCC(=O)O1`, the Drug uptake in series [1] worked out at 0.007 µg; in series [2] it was 0.015 µg; in series [5], 0 µg; in [6] it was 0.774 mg/mL; in [7], 0.017 µg; in series [9], 0.022 µg. In addition, the Drug uptake is 0.02 µg in [10]; 0 ng in [11]; 0.013 ng in series [12]; 0.011 ng in [13]; 0.658 mg/mL in [15]; 9.95 ng in series [17]. Besides, the Drug uptake was 8.4 ng in series [21]; 18.62 ng in series [22]; 0.009 µg in series [23]; 0.791 mg/mL in [24]; 0 µg in [26]; 0.01 µg in series [28]. The Drug uptake turned out to be 0.019 µg in series [30]; 0 ng in series [31]; 0.02 µg in [34]; 0.016 ng in [35]; 0.9 mg/mL in series [36]; 0 µg in series [38]. Also, the Drug uptake turned out to be 0.001 ng in series [39]; 0.027 µg in [40]; 8.44 ng in [41]; 0.618 mg/mL in [42]; 0.008 µg in [43]; 0.007 µg in [44]. For the same compound, the Drug uptake in series [45] worked out at 9.95 ng; in series [47] it was 0.009 µg; in series [49], 0 µg; in series [50] it was 0 µg. For the same compound, the Activity in [3] was 10.51%; in [16], 13.58%; in [18], “Non-toxic”; in series [19] it was 19.37%; in series [32], 33.65%; in [33] it was 29%. In addition, the Activity entry in series [46] was “Dose-dependent effect”. The result in [4], in series [8], in [20], in [25], in series [27] and in [29] was Active. Moreover, the outcome in series [37] was Active. Also, the entries for the “fold change (FC)” value in [14] and in [48] were 2.5 and 1.5, respectively.
In the case of `CCCCCCCCC(O)CCC(=O)O` (centres undefined), the Stability entry in series [51] is given as “Unstable”. In [52], the outcome was Active.
With `CCCCCCCC[C@@H](O)CCC(=O)O`, in [52], the result was Active.
For `CCCCCCCC[C@H](O)CCC(=O)O`, in series [52], the result was Active.
